Read-outs that look alike come from different tables or passages of the source.
Assays:
HIV-1 (HTLVIIIb) [1] = assay type: cell-based; conditions: for Cytopathicity / Proviral Load: anti-estrogen 10^−7M combined with Mab 7B6 and thioredoxin matrices
Description: (§1) In the continued presence of each of the factors aforementioned, the cells were subsequently infected at a multiplicity of two infective viral particles per cell for two hours at 25° C. with constant agitation in a final volume of 1.0 ml. […] Syncytium formation was evaluated by light microscopy on days 3, 5 and 7.

HIV-1 (HTLVIIIb) [2] = assay type: cell-based; conditions: Day 5 post-infection; anti-estrogen 10^−7M combined with Mab 7B6 and thioredoxin matrices
Description: as §1
Prior to infection, HUT78 cells were washed three times with PBS and the cell viability was determined. Infection was performed as described above. At indicated time intervals, 1.0 mil aliquots of were taken and p24 antigen quantified using a commercial ELISA kit (p24 Antigen Capture ELISA, ABBOTT Diagnostics Division), following the instructions of the manufacturer.

es-LAPase = es-LAPase enzyme kinetics and inhibition (l-leucine-β-naphthylamide, 330 nm); assay type: biochemical, human; conditions: for es-LAPase reaction rate versus control es-LAPase (FIG. 3): 167 μM Bestatin, 167 μM reduced glutathione, 17 μM reduced thioredoxin; for mode of es-LAPase inhibition: from Vmax, Km, Ki of Table 4
Description: The kinetic assays were performed using a Spectronic Genesys 5 spectrophotometer from Milton Roy (Rochester, N.Y.). Absorbance was recorded every sixty seconds, over a period of 30 min. Enzyme kinetic assays were performed using 8.0×10^−2 U of es-LAPase in a final reaction volume of 600 μl and triplicate samples. […] A corresponding blank without es-LAPase was used as baseline. Both of the cuvettes were transferred to the spectrophotometer where the 1-leucine-β-naphthylamide solution was added last, marking time zero of the reaction.

HIV [3] = conditions: Tamoxifen concentrations of 10^−6M or higher; cited from earlier work
HUT78 cells = experiment: Extracellular LAPase activity of HUT78 cells incubated with 17-β-Estradiol; assay type: cell-based
HIV [4] = experiment: HIV infectivity of HUT78 cells by reverse transcriptase activity with or without 17-β-Estradiol; conditions: for RT Activity: estrogen 10^−7 M
Description: The sensitivity of CD4^+ T-HUT78 cells to HIV viral infection was determined by measuring the activity of reverse transcriptase in cells infected in the presence/absence of 17-β-Estradiol.

LAPase = experiment: Estrogen incubation with purified LAPase preparations; assay type: biochemical; conditions: purified enzyme alone
Description: (§2) Control cells were cultured in the absence of 17-β-Estradiol.). During the same period, LAPase in cell supernatants of control cells remain unchanged. In addition, LAPase activity was determined in supernatants of primary parental cell lines immunoprecipitated with anti-LAP-Protein G MAb 7B6 bound antibodies. […] In addition, there was no effect of estrogen incubation on LAPase activity in purified preparations of this enzyme alone.

[5] = tested on: breast carcinoma parental cells; experiment: LAPase release from primary breast carcinoma parental cells after estrogen stimulation (supernatants immunoprecipitated with MAb 7B6, fluorometric assay); assay type: cell-based, human
Description: as §2
Primary parental breast carcinoma cells obtained from human tumour biopsies were stimulated with 100 nM 17-β-Estradiol for 24 hours or cell media alone as a control. The cell media was RPMI 1640 medium+10% FCS+100 U/ml Penicillin+100 μg/ml Streptomycin. Cell supernatants were collected and then dialyzed against PBS in seamless cellulose tubing (MW 12,400) for 12 hours at 4° C. Es-LAPase was subsequently purified from the dialyzed cell supernatants using HPLC-gel permeation followed by DEAE-Cellulose and Bestatin-Sepharose affinity Chromatography. Briefly, the cell supernatant was applied to a Bio-Sil SEC-250 column (600×7.5 mm) previously equilibrated in a buffer containing 100 mM Sodium Phosphate buffer pH 6.8, 100 mM Na2SO4, 1 μM ZnCl2 and 10% glycerol. […]
Es-LAPase activities were determined fluorometrically using leucine-b-naphthylamide as the substrate [Kuramochi, H., et al. (1987) J. Antibiot., 40,1605-1611].

[6] = es-LAPase with 167 μM inhibitor

## CC/C(=C(\c1ccc(I)cc1)c1ccc(OCCN2CCCC2)cc1)c1ccccc1 [Idoxifene]
HIV-1 (HTLVIIIb) [1]; Day 5 post-infection
  Cytopathicity: 0 Syncytia/well
  Proviral Load: 0 copies
HIV-1 (HTLVIIIb) [2]
  P24: 0 nmol/mL

## N[C@@H](CCC(=O)N[C@@H](CS)C(=O)NCC(=O)O)C(=O)O [Glutathione]
es-LAPase
  es-LAPase reaction rate versus control es-LAPase (FIG. 3): significant slower rates
  mode of es-LAPase inhibition: noncompetitive
es-LAPase; [6]
  Vmax: 17.2 ± 1.5 10^−6 M/min

## CC/C(=C(/c1ccc(OCCN(C)C)cc1)c1cccc(O)c1)c1ccccc1 [Droloxifene]
HIV-1 (HTLVIIIb) [1]; Day 5 post-infection
  Cytopathicity: 5.2 ± 0.6 Syncytia/well
  Proviral Load: 14 copies
HIV-1 (HTLVIIIb) [2]
  P24: 0.04 ± .003 nmol/mL

## C[C@]12CCC(=O)C(O)=C1CC[C@@H]1[C@@H]2CC[C@]2(C)C(=O)CC[C@@H]12 [4-hydroxyandrostenedione]
HIV-1 (HTLVIIIb) [1]; Day 5 post-infection
  Cytopathicity: 4.0 ± 0.4 Syncytia/well
  Proviral Load: 12 copies
HIV-1 (HTLVIIIb) [2]
  P24: 0.02 ± .001 nmol/mL

## C#C[C@]1(O)CC[C@H]2[C@@H]3CC[C@H]4C[C@@H](O)CC[C@@H]4[C@H]3CC[C@@]21C [3β,5α-tetrahydro Norethisterone]
HIV-1 (HTLVIIIb) [1]; Day 5 post-infection
  Cytopathicity: 0 Syncytia/well
  Proviral Load: 2 copies
HIV-1 (HTLVIIIb) [2]
  P24: 0 nmol/mL

## O=C(c1ccc(OCCN2CCCCC2)cc1)c1c(-c2ccc(O)cc2)sc2cc(O)ccc12 [Raloxifene]
HIV-1 (HTLVIIIb) [1]; Day 5 post-infection
  Cytopathicity: 3.3 ± 0.1 Syncytia/well
  Proviral Load: 8 copies
HIV-1 (HTLVIIIb) [2]
  P24: 0.01 ± .002 nmol/mL

## CC/C(=C(\c1ccccc1)c1ccc(OCCN(C)C)cc1)c1ccccc1 [Tamoxifen]
HIV [3]
  inhibition of HIV infection: incomplete inhibition
HIV-1 (HTLVIIIb) [1]; Day 5 post-infection
  Cytopathicity: 0 Syncytia/well
  Proviral Load: 0 copies
HIV-1 (HTLVIIIb) [2]
  P24: 0 nmol/mL

## CC(C)C[C@H](NC(=O)[C@@H](O)[C@H](N)Cc1ccccc1)C(=O)O [Bestatin]
HIV-1 (HTLVIIIb) [1]; Day 0 post-infection, 120 μg/ml
  HIV-1 proviral copies: 0 copies
HIV-1 (HTLVIIIb) [1]; Day 3 post-infection, 120 μg/ml
  HIV-1 proviral copies: 7 ± 2 copies
HIV-1 (HTLVIIIb) [1]; Day 5 post-infection, 120 μg/ml
  HIV-1 proviral copies: 29 ± 3 copies
HIV-1 (HTLVIIIb) [1]; Day 7 post-infection, 120 μg/ml
  HIV-1 proviral copies: 457 ± 12 copies
es-LAPase
  es-LAPase reaction rate versus control es-LAPase (FIG. 3): clearly inhibits
  mode of es-LAPase inhibition: competitive
es-LAPase; [6]
  Vmax: 34.0 ± 3.9 10^−6 M/min

## 17-β-Estradiol
HUT78 cells
  concentration of maximum stimulation of LAPase release: 10^−7 M
HUT78 cells; [β-Estradiol] 10^−5 M
  LAPase activity, 17-β-Estradiol Stimulation: 10.8 U* × 10^−5/ml
HUT78 cells; [β-Estradiol] 10^−6 M
  LAPase activity, 17-β-Estradiol Stimulation: 20.4 U* × 10^−5/ml
HUT78 cells; [β-Estradiol] 10^−7 M
  LAPase activity, 17-β-Estradiol Stimulation: 148.6 U* × 10^−5/ml
HUT78 cells; [β-Estradiol] 10^−8 M
  LAPase activity, 17-β-Estradiol Stimulation: 110.7 U* × 10^−5/ml
HIV [4]; 3 days and 5 days post infection
  HIV viral infectivity (RT activity) relative to control cells infected in the absence of estrogen: approximately 4 times
HIV [4]; Day 0 (Infection)
  RT Activity: 0.68 cpm × 10^2/10 μl
HIV [4]; Day 3 (Post Infection)
  RT Activity: 72.42 cpm × 10^2/10 μl
HIV [4]; Day 5 (Post Infection)
  RT Activity: 124.44 cpm × 10^2/10 μl
LAPase
  effect of estrogen incubation on LAPase activity in purified preparations of the enzyme: no effect
[5]; 100 nM, 24 hours, supernatants immunoprecipitated with anti-LAP-Protein G MAb 7B6
  extracellular LAPase activity of estrogen stimulated cells: 7.7×10^−5 U/ml
[5]; breast carcinoma parental cells, 24 hours of incubation
  estrogen concentration of maximum release of LAPase: 100 nM

B1: Thioredoxin: Human Thioredoxin purified from CD4+ T MP6 cells; uncompetitive inhibitor of es-LAPase; also linked to EDC/DADPA matrix (protein, UniProt P10599 2-105, looked up)
Thioredoxin: VKQIESKTAFQEALDAAGDKLVVVDFSATWCGPCKMIKPFFHSLSEKYSNVIFLEVDVDDCQDVASECEVKCMPTFQFFKKGQKVGEFSGANKEKLEATINELV
modifications: linked to EDC/DADPA matrix
HIV-1 (HTLVIIIb) [1]; Day 0 post-infection, matrix-bound, 40 ng/5 ml
  HIV-1 proviral copies: 0 copies
HIV-1 (HTLVIIIb) [1]; Day 3 post-infection, matrix-bound, 40 ng/5 ml
  HIV-1 proviral copies: 4 ± 1 copies
HIV-1 (HTLVIIIb) [1]; Day 5 post-infection, matrix-bound, 40 ng/5 ml
  HIV-1 proviral copies: 12 ± 3 copies
HIV-1 (HTLVIIIb) [1]; Day 7 post-infection, matrix-bound, 40 ng/5 ml
  HIV-1 proviral copies: 122 ± 8 copies
HIV-1 (HTLVIIIb) [1]; matrix-bound, incubated with HUT 78 cells 7 hours prior to infection
  number of HIV-1 proviral copies compared to control cells (in words): significantly reduces
es-LAPase
  es-LAPase reaction rate versus control es-LAPase (FIG. 3): significant slower rates
  mode of es-LAPase inhibition: uncompetitive
es-LAPase; es-LAPase with 17 μM inhibitor
  Km: 23.4 ± 0.6 µM
  Vmax: 5.31 ± 0.02 10^−6 M/min
